According to patent US20250161299A1, “ORAL PCLX-001 IN THE TREATMENT OF HUMAN CANCER” (PACYLEX PHARMACEUTICALS INC., priority 2022, published 2025):
Like-named read-outs stand apart in the source and are kept apart here.

Experiment: Phase I trial of oral PCLX-001: plasma pharmacokinetics, noncompartmental analysis (Phoenix WinNonlin 8.3)
Format: in vivo, human
Details: human, plasma
From the text: The clinical trial is entitled “Phase I Trial of PCLX-001 in B-cell Non-Hodgkin Lymphoma and Advanced Solid Malignancies” and registered at clinicaltrials.gov as NCT04836195. It is a phase I dose-escalation study of oral PCLX-001, conducted in a multicenter, non-randomized, open-label, non-controlled design. The study is comprised of two parts: Part A (single-agent dose escalation) and Part B (single-agent expansion cohorts).
Patients are to receive daily oral PCLX-001 on 28-day cycles, beginning with a starting dose of 20 mg.
[…] After dosing, the blood samples (volumes 3 mL) were serially collected into heparinized tubes from a right forearm butterfly cannula. All blood fluid specimens were frozen and later assayed using a validated UHPLC-MS detection method.
Noncompartmental pharmacokinetic analysis was performed using Phoenix WinNonlin 8.3 using trapezoidal rule and linear up log down methodology. WinNonlin was allowed to pick optimal terminal phases.
Nonparametric superposition was performed using Phoenix WinNonlin Nonparametric Superposition to predict steady state data based upon Day 1 data for each patient. It utilized the 8- and 24-hour time points for estimation of terminal phase for the purposes of this exercise. We simulated 20 mg daily oral dosing and simulations were conducted out to steady state. Results are show in FIGS. 5, 6, and 7.
In the non-compartmental analysis, Phoenix WinNonlin 8.3 trapezoidal rule was used, with linear up log down method. This allowed WinNonlin to pick optimal terminal phase (WinNonlin will accept Rsq adjusted to >0.7). Additional analysis to assess adequate fie included visual inspection of data, and AUCextrap should be <15%.
Phoenix WinNonlin 8.3 trapezoidal rule. Used linear up log down method. Allowed WinNonlin to pick optimal terminal phase (WinNonlin will accept Rsq adjusted >0.7).
Other analysis to assess adequate fit. Visual inspection of data. AUCextrap should be <15%.

[1] = oral, 140 mg, Table 4, not on Pantoprazole, 140 mg, N 1, Day 1
[2] = oral, 140 mg, Table 5, Mean (CV), on Pantoprazole, 140 mg, N 2, Day 1
[3] = oral, 140 mg, Table 5, Mean (CV), on Pantoprazole, 140 mg, N 2, Day 15
[4] = po, 20 mg, Table 1A, Patient 115-002-001 (Patient 1), Day 1, 20 mg oral daily
[5] = po, 20 mg, Table 1A, Patient 115-002-001 (Patient 1), Day 15, 20 mg oral daily
[6] = po, 20 mg, Table 1A, Patient 115-002-002 (Patient 2), Day 15, 20 mg oral daily
[7] = po, 20 mg, Table 1A, Patient 115-002-004 (Patient 3), Day 1, 20 mg oral daily
[8] = po, 20 mg, Table 1A, Patient 115-002-004 (Patient 3), Day 15, 20 mg oral daily

SMILES: Cc1c(NS(=O)(=O)c2c(Cl)cc(-c3ccnc(N4CCNCC4)c3)cc2Cl)c(CC(C)C)nn1C [PCLX-001, 2,6-dichloro-N-(3-isobutyl-1,5-dimethyl-1H-pyrazol-4-yl)-4-(2-(piperazin-1-yl)pyridin-4-yl)benzene sulfonamide]
- Cmax (oral, 70 mg, Table 4, not on Pantoprazole, 70 mg, N 1, Day 15): 629 ng/mL
- AUC(0-t) (oral, 70 mg, Table 4, not on Pantoprazole, 70 mg, N 1, Day 15, read-out: AUClast): 7300 ng·h/mL
- Tmax (oral, 70 mg, Table 4, not on Pantoprazole, 70 mg, N 1, Day 15, read-out: Tmax): 4 h
- Cmax (oral, 70 mg, Table 5, Mean (CV), on Pantoprazole, 70 mg, N 2, Day 1): 283 ng/mL
- AUC(0-t) (oral, 70 mg, Table 5, Mean (CV), on Pantoprazole, 70 mg, N 2, Day 1, read-out: AUClast): 3260 ng·h/mL
- Cmax (oral, 70 mg, Table 5, Mean (CV), on Pantoprazole, 70 mg, N 2, Day 15): 386 ng/mL
- AUC(0-t) (oral, 70 mg, Table 5, Mean (CV), on Pantoprazole, 70 mg, N 2, Day 15, read-out: AUClast): 5760 ng·h/mL
- Tmax (oral, 70 mg, Table 5, median (min, max), on Pantoprazole, 70 mg, N 2, Day 1, read-out: Tmax): 6 h
- Tmax (oral, 70 mg, Table 5, median (min, max), on Pantoprazole, 70 mg, N 2, Day 15, read-out: Tmax): 6 h
- Cmax (oral, 100 mg, Table 4, Mean (CV), not on Pantoprazole, 100 mg, N 2, Day 15): 1340 ng/mL
- Cmax (oral, 100 mg, Table 4, Mean (CV), not on Pantoprazole, 100 mg, N 4, Day 1): 1770 ng/mL
- AUC(0-t) (oral, 100 mg, Table 4, Mean, not on Pantoprazole, 100 mg, N 2, Day 15, read-out: AUClast): 17400 ng·h/mL
- AUC(0-inf) (oral, 100 mg, Table 4, Mean, not on Pantoprazole, 100 mg, N 4, Day 1): 18000 ng·h/mL
- AUC(0-t) (oral, 100 mg, Table 4, Mean, not on Pantoprazole, 100 mg, N 4, Day 1, read-out: AUClast): 15100 ng·h/mL
- half-life (oral, 100 mg, Table 4, Mean, not on Pantoprazole, 100 mg, N 4, Day 1, read-out: t½ (converted)): 7.26 h
- Tmax (oral, 100 mg, Table 4, median (min, max), not on Pantoprazole, 100 mg, N 2, Day 15, read-out: Tmax): 3 h
- Tmax (oral, 100 mg, Table 4, median (min, max), not on Pantoprazole, 100 mg, N 4, Day 1, read-out: Tmax): 2 h
- AUC(0-inf) (oral, 100 mg, Table 4, not on Pantoprazole, 100 mg, N 2, Day 15, value from N = 1 patient): 19400 ng·h/mL
- half-life (oral, 100 mg, Table 4, not on Pantoprazole, 100 mg, N 2, Day 15, value from N = 1 patient, read-out: t½ (converted)): 7.56 h
- Cmax (oral, 140 mg, Table 4, Mean (CV), not on Pantoprazole, 140 mg, N 1, Day 15): 903 ng/mL
- AUC(0-inf) (oral, 140 mg, Table 4, Mean, not on Pantoprazole, 140 mg, N 1, Day 15): 10700 ng·h/mL
- AUC(0-t) (oral, 140 mg, Table 4, Mean, not on Pantoprazole, 140 mg, N 1, Day 15, read-out: AUClast): 7680 ng·h/mL
- Tmax (oral, 140 mg, Table 4, median (min, max), not on Pantoprazole, 140 mg, N 1, Day 15, read-out: Tmax): 1.5 h
- AUC(0-inf) [1]: 24200 ng·h/mL
- Cmax [1]: 2710 ng/mL
- AUC(0-t) (oral, 140 mg, Table 4, not on Pantoprazole, 140 mg, N 1, Day 1, read-out: AUClast): 21200 ng·h/mL
- Tmax (oral, 140 mg, Table 4, not on Pantoprazole, 140 mg, N 1, Day 1, read-out: Tmax): 0.5 h
- half-life (oral, 140 mg, Table 4, not on Pantoprazole, 140 mg, N 1, Day 1, read-out: t½ (converted)): 7.91 h
- half-life (oral, 140 mg, Table 4, not on Pantoprazole, 140 mg, N 1, Day 15, read-out: t½ (converted)): 13.8 h
- AUC(0-inf) [2]: 7830 ng·h/mL
- Cmax [2]: 1300 ng/mL
- AUC(0-t) (oral, 140 mg, Table 5, Mean (CV), on Pantoprazole, 140 mg, N 2, Day 1, read-out: AUClast): 7260 ng·h/mL
- AUC(0-inf) [3]: 10700 ng·h/mL
- Cmax [3]: 903 ng/mL
- AUC(0-t) (oral, 140 mg, Table 5, Mean (CV), on Pantoprazole, 140 mg, N 2, Day 15, read-out: AUClast): 7680 ng·h/mL
- half-life (oral, 140 mg, Table 5, Mean, on Pantoprazole, 140 mg, N 2, Day 1, read-out: t½ (converted)): 6.71 h
- half-life (oral, 140 mg, Table 5, Mean, on Pantoprazole, 140 mg, N 2, Day 15, read-out: t½ (converted)): 13.8 h
- Tmax (oral, 140 mg, Table 5, median (min, max), on Pantoprazole, 140 mg, N 2, Day 1, read-out: Tmax): 1 h
- Tmax (oral, 140 mg, Table 5, median (min, max), on Pantoprazole, 140 mg, N 2, Day 15, read-out: Tmax): 1.5 h
- Tmax (oral, Example 2, all dose groups, Days 1 and 15, read-out: Tmax, median (range)): 2 h
- half-life (oral, Example 2, range across the dose groups (20 to 140 mg), read-out: t1/2): 5.02 to 17.4 h
- AUC(0-inf) [4]: 2030 ng·h/mL
- Cmax [4]: 353 ng/mL
- AUC(0-t) (po, 20 mg, Table 1A, Patient 115-002-001 (Patient 1), Day 1, 20 mg oral daily, read-out: AUClast or AUCtau): 1710 ng·h/mL
- half-life (po, 20 mg, Table 1A, Patient 115-002-001 (Patient 1), Day 1, 20 mg oral daily, read-out: Half-life (converted)): 8.54 h
- Tmax (po, 20 mg, Table 1A, Patient 115-002-001 (Patient 1), Day 1, 20 mg oral daily, read-out: Tmax): 1 h
- AUC(0-inf) [5]: 3500 ng·h/mL
- Cmax [5]: 479 ng/mL
- AUC(0-t) (po, 20 mg, Table 1A, Patient 115-002-001 (Patient 1), Day 15, 20 mg oral daily, read-out: AUClast or AUCtau): 2730 ng·h/mL
- half-life (po, 20 mg, Table 1A, Patient 115-002-001 (Patient 1), Day 15, 20 mg oral daily, read-out: Half-life (converted)): 10.3 h
- Tmax (po, 20 mg, Table 1A, Patient 115-002-001 (Patient 1), Day 15, 20 mg oral daily, read-out: Tmax): 1 h
- Cmax (po, 20 mg, Table 1A, Patient 115-002-002 (Patient 2), Day 1, 20 mg oral daily): 127 ng/mL
- AUC(0-t) (po, 20 mg, Table 1A, Patient 115-002-002 (Patient 2), Day 1, 20 mg oral daily, read-out: AUClast or AUCtau): 1300 ng·h/mL
- Tmax (po, 20 mg, Table 1A, Patient 115-002-002 (Patient 2), Day 1, 20 mg oral daily, read-out: Tmax): 4 h
- AUC(0-inf) [6]: 2520 ng·h/mL
- Cmax [6]: 215 ng/mL
- AUC(0-t) (po, 20 mg, Table 1A, Patient 115-002-002 (Patient 2), Day 15, 20 mg oral daily, read-out: AUClast or AUCtau): 2010 ng·h/mL
- half-life (po, 20 mg, Table 1A, Patient 115-002-002 (Patient 2), Day 15, 20 mg oral daily, read-out: Half-life (converted)): ~10 h
- Tmax (po, 20 mg, Table 1A, Patient 115-002-002 (Patient 2), Day 15, 20 mg oral daily, read-out: Tmax): 2 h
- AUC(0-inf) [7]: 1880 ng·h/mL
- Cmax [7]: 304 ng/mL
- AUC(0-t) (po, 20 mg, Table 1A, Patient 115-002-004 (Patient 3), Day 1, 20 mg oral daily, read-out: AUClast or AUCtau): 1780 ng·h/mL
- half-life (po, 20 mg, Table 1A, Patient 115-002-004 (Patient 3), Day 1, 20 mg oral daily, read-out: Half-life (converted)): 5.61 h
- Tmax (po, 20 mg, Table 1A, Patient 115-002-004 (Patient 3), Day 1, 20 mg oral daily, read-out: Tmax): 2 h
- AUC(0-inf) [8]: 2150 ng·h/mL
- Cmax [8]: 295 ng/mL
- AUC(0-t) (po, 20 mg, Table 1A, Patient 115-002-004 (Patient 3), Day 15, 20 mg oral daily, read-out: AUClast or AUCtau): 1910 ng·h/mL
